According to US12005056B2, “Centrally-active ghrelin agonist and medical uses thereof” (Helsinn Healthcare SA, priority 2018, dated 2024):
Each block holds one compound with its values, some of them ahead of it.

What was measured:
[1] = test system: oxaliplatin-treated Balb/C mice; conditions: oxaliplatin 6 mg/kg i.p. twice weekly for 4 weeks
[2] = Comparative pharmacokinetics versus reference compounds, rat
[3] = Comparative pharmacokinetics versus reference compounds, dog
[4] = Water solubility testing
[5] = Rat, 2 hours after intravenous administration
[6] = Rat, IV, dosing level 3 mg/kg (level not given for Reference 2)
[7] = Rat, PO, dosing level 3 mg/kg (level not given for Reference 2)
[8] = Dog, IV, dosing level 1 mg/kg (level not given for Reference 2)
[9] = Dog, PO, dosing level 2 mg/kg (level not given for Reference 2)

SMILES: O=C1[O][Pt]2([NH][C@@H]3CCCC[C@H]3[NH]2)[O]C1=O [Oxaliplatin, reference compound]
decrease in caudal NCV vs. vehicle-treated mice [1]: 8±1.1%
reduction in IENFD in the footpads vs. vehicle-treated mice [1]: −31.7±3.5%
decrease in digital potential amplitude ([1]; not statistically significant): 13.5+/−6.4%

2 hr brain concentration [2, 5]: 79.6 ng · g
2 hr plasma concentration [2, 5]: 790.3 ng/mL
AUC (0-t) [2, 6]: 8412.7 ng·h/mL
CLz/F [2, 6]: 5 mL/min/kg
AUC (0-t) [2, 7]: 6139.8 ng·h/mL
CLz/F [2, 7]: 6.7 mL/min/kg
F [2, 7]: 73.0%
Kp at 2 h ([2]; rat, brain/plasma, iv): 0.1
Cmax ([2]; rat, plasma, iv, 3 mg/kg): 1220 ng/mL
half-life ([2]; rat, plasma, iv, 3 mg/kg): 5.8 h
Cmax ([2]; rat, plasma, po, 3 mg/kg): 481 ng/mL
Vd/F ([2]; rat, plasma, po, 3 mg/kg): 3.3 L/kg
half-life ([2]; rat, plasma, po, 3 mg/kg): 6.1 h
tmax ([2]; rat, plasma, po, 3 mg/kg): 6 h
AUC (0-t) [3, 8]: 14810.5 ng·h/mL
CLz/F [3, 8]: 0.67 mL/min/kg
AUC (0-t) [3, 9]: 28288.2 ng·h/mL
CLz/F [3, 9]: 1 mL/min/kg
F [3, 9]: 95.5%
Cmax ([3]; dog, in vivo, iv, 1 mg/kg): 1520 ng/mL
half-life ([3]; dog, in vivo, iv, 1 mg/kg): 22.2 h
Cmax ([3]; dog, in vivo, po, 2 mg/kg): 2040 ng/mL
Vd/F ([3]; dog, in vivo, po, 2 mg/kg): 0.9 L/kg
half-life ([3]; dog, in vivo, po, 2 mg/kg): 11.8 h
tmax ([3]; dog, in vivo, po, 2 mg/kg): 0.67 h
SMILES: COc1ccc([C@H](C)NC(=O)N(O)C2CCN(C)CC2)c2ccccc12 [Reference 2]

solubility [4]: < 2000 µg/mL
SMILES: COc1ccc(C(C)NC(=O)N(C)C2CCN(C)CC2(C)C)c(Cl)c1Cl (centres unmarked) [free base, 3-(1-(2,3-dichloro-4-methoxyphenyl)ethyl)-1-methyl-1-(1,3,3-trimethylpiperidin-4-yl)urea]
